Legend:
[1] = molecular target: T1, KRAS G12D protein (Homo sapiens, UniProt P01116, G12D); assay: KRAS degradation activity by Cell ELISA in AsPC-1 (Test Example 1); format: cell-based; conditions: AsPC-1 cells, cultured overnight with compound, corrected with β-actin, read-out: DC50 (50% degradation concentration of the amounts of KRAS)
T1 construct: host or cells: AsPC-1
Protocol: Test Example 1: Evaluation of KRAS Degradation Activity on Human G12D Mutant KRAS-Positive Pancreatic Cancer Line AsPC-1 (CRL-1682; ATCC)
The KRAS degradation activity of test compounds was evaluated by measuring the expression levels of KRAS G12D protein by Cell ELISA.
AsPC-1 cells were seeded at 20 μL per well on 384-well plates (from Greiner bio-one) to give 2.0×10^4 cells per well. As for the cell culture conditions, RPMI 1640 (from Sigma-Aldrich) medium containing 10% fetal bovine serum (from Cytiva) was used in the presence of 5% CO2 at 37° C.
The next day, the test compounds (10 points having final concentrations in the range of 10 μM to 0.3 nM) and DMSO (from FUJIFILM Wako Pure Chemical Corporation), which was the solvent for the test compounds, as a negative control were diluted 500-fold with a fresh medium and were added at 20 μL per well. The cells were cultured overnight.
The next day, the culture supernatant was removed, and 4% paraformaldehyde phosphate buffer (from FUJIFILM Wako Pure Chemical Corporation) was added at 20 μL per well. The plates were allowed to stand for 30 minutes at room temperature to thus immobilize the cells. Then, the supernatant was removed, and 0.1% Triton X-100 (from Amersham Biosciences)-containing Phosphate buffered saline (PBS; from FUJIFILM Wako Pure Chemical Corporation) was added at 20 μL per well. After allowing to stand for 10 minutes at room temperature, the supernatant was removed. PBS was added at 25 μL per well, and the supernatant was removed to thus wash each well. The washing was performed twice in total. Next, the supernatant was removed, and 0.5% sodium dodecyl sulfate (SDS; from Invitrogen)-containing PBS was added at 20 μL per well. After allowing to stand at room temperature for 10 minutes, the supernatant was removed by a centrifugal operation (using a centrifugal dehydrator machine, the supernatant was removed by the same method hereinafter). PBS was added at 25 μL per well, and the supernatant was removed to thus wash each well. The washing was performed twice in total. The supernatant was removed, and blocking solution (Intercept Blocking Buffer; from Li-COR Biosciences) was added at 20 μL per well. After allowing to stand for 30 minutes at room temperature, the supernatant was removed, and a solution obtained by diluting anti-β-actin antibody (Anti-beta Actin antibody [mAbcam 8226]-Loading Control; from abcam) 1,000-fold with blocking solution and a solution obtained by diluting anti-Ras (G12D Mutant Specific) antibody (Ras (G12D Mutant Specific) (D8H7) Rabbit mAb #14429; from Cell Signaling Technology) and anti-β-actin antibody (from abcam) 1,000-fold with blocking solution were respectively added to positive control wells and the other wells at 20 μL per well as a primary antibody. The plate was allowed to stand overnight at 4° C.
The next day, the supernatant was removed. PBS was added at 25 μL per well, and the supernatant was removed to thus wash each well. The washing was performed twice in total. The supernatant was removed, and a solution obtained by diluting Donkey anti-Mouse IgG H&L (IRDye 680RD) (from Li-COR Biosciences) and Goat anti-Rabbit IgG H&L (IRDye 800CW) (from Li-COR Biosciences) 1,000-fold with blocking solution was added at 20 μL per well as a secondary antibody. After allowing to stand for 1 hour at room temperature, the supernatant was removed. PBS was added at 25 μL per well, and the supernatant was removed to thus wash each well. The washing was performed twice in total. After removing the supernatant, the plate was dried with air at room temperature for 2 hours or more, and the 700 nm and 800 nm fluorescent signals were measured with Aerius (from Li-COR Biosciences). […]

[2] = test system: phosphorylation of threonine 202 (Thr202) and tyrosine 204 (Tyr204) of ERK; assay: ERK phosphorylation inhibitory effect by Cell ELISA in AsPC-1 (Test Example 2); format: cell-based, human; conditions: Homo sapiens, ASPC1, AsPC-1 cells, cultured overnight with compound; 1 μM trametinib taken as 0%
Protocol: Test Example 2: Evaluation of ERK Phosphorylation Inhibitory Effect on Human G12D Mutant KRAS-Positive Pancreatic Cancer Line AsPC-1
The ERK phosphorylation inhibitory effect of test compounds was evaluated by measuring phosphorylation of threonine 202 (Thr202) and tyrosine 204 (Tyr204) of ERK located downstream of the KRAS signal by Cell ELISA.
AsPC-1 cells were seeded on 384-well plates at 36 μL/well to give 2.0×10^4 cells per well. As for the cell culture conditions, RPMI 1640 medium containing 10% fetal bovine serum was used in the presence of 5% CO2 at 37° C.
The next day, the test compounds (10 points having final concentrations in the range of 10 μM to 0.3 nM), trametinib (MEK inhibitor) of a final concentration of 1 μM as positive control and DMSO, which was the solvent for the test compounds, as negative control were diluted 100-fold with a fresh medium and were added at 4 μL per well. The cells were cultured overnight. After culturing, 30% glyoxal solution (40% glyoxal [from Nacalai Tesque] was diluted with PBS) was quickly added at 30 μL per well, and the plate was allowed to stand for 60 minutes at room temperature to thus immobilize the cells. Then, the plate was centrifuged to remove the supernatant (using a centrifugal dehydrator machine, the supernatant was removed by the same method hereinafter), and 0.1% Triton X-100-containing PBS was added at 20 μL per well. After allowing to stand for 10 minutes at room temperature, the supernatant was removed, and the same operation was further repeated. Next, 0.5% SDS-containing PBS was added at 20 μL per well, and after allowing to stand at room temperature for 30 minutes, the supernatant was removed. Subsequently, blocking solution (Intercept Blocking Buffer) was added at 20 μL per well, and the plate was allowed to stand for 1 hour at room temperature. The supernatant was removed, and an ERK (Thr202/Tyr204) phosphorylation antibody (Phospho-p44/42 MAPK (Erk 1/2) (Thr202/Tyr204) (D13.14.4E) XP Rabbit mAb; from Cell Signaling Technology) diluted 2,500-fold with blocking solution was added at 15 μL per well as a primary antibody. The plates were allowed to stand at 4° C. overnight.
The next day, the supernatant was removed. 0.05% Tween-20 (from Thermo Fisher Scientific)-containing PBS was added at 50 μL per well, and the supernatant was removed to thus wash each well. The washing was performed three times in total. After washing, Goat anti-Rabbit IgG H&L (IRDye 800CW) diluted 1,000-fold with blocking solution was added at 15 μL per well as a secondary antibody, and the plates were allowed to stand for 1 hour at room temperature. The supernatant was removed, and each well was washed three times with 0.05% Tween-20-containing PBS in the same manner as after the primary antibody reaction. After removing the supernatant, the plates were dried with air at room temperature for 3 hours or more, and the 800-nm fluorescent signals were measured with Aerius.
With the signaling value at the time of addition of DMSO taken as 100% and with the signaling value at the time of addition of 1 μM trametinib taken as 0%, the 50% inhibitory concentration values (IC50) were calculated by Sigmoid-Emax nonlinear regression analysis.

[3] = test system: human G12D mutant KRAS-positive pancreatic cancer line AsPC-1; assay: Non-anchorage-dependent cell growth inhibition, spheroid 3D cell culture (Test Example 3); format: cell-based; conditions: Homo sapiens, ASPC1, 144 h, AsPC-1 spheroid 3D culture, 6 days, CellTiter Glo 2.0
Protocol: Test Example 3: Evaluation of Non-Anchorage-Dependent Cell Growth Inhibitory Effect on Human G12D Mutant KRAS-Positive Pancreatic Cancer Line AsPC-1
The non-anchorage-dependent cell growth inhibitory effect of test compounds was evaluated by spheroid 3D cell culture.
AsPC-1 cells were seeded on low-cell-adhesive round bottom 384-well plates (PrimeSurface: from Sumitomo Bakelite) at 36 μL/well to give 5×10^2 cells per well. As for the cell culture conditions, RPMI 1640 medium containing 10% fetal bovine serum was used in the presence of 5% CO2 at 37° C.
The next day, the test compounds (10 or 6 points having final concentrations in the range of 10 μM to 0.3 nM) and DMSO, which was the solvent for the test compounds, as a negative control were diluted 100-fold with a fresh medium and were added at 4 μL per well. After culturing in the presence of 5% CO2 at 37° C. for 6 days, CellTiter Glo 2.0 (from Promega) was added at 20 μL per well. After stirring with a plate mixer (from FINEPCR) at room temperature for 1 hour, the luminescent signals were measured with ARVO X3 (from PerkinElmer).
With the signaling value in treatment with DMSO taken as 100% and with the signaling value in the medium alone without cells taken as 0%, the 50% inhibitory concentration values (IC50) were calculated by Sigmoid-Emax nonlinear regression analysis.

T1 sequence (P01116 1-188 isoform P01116-2 G12D): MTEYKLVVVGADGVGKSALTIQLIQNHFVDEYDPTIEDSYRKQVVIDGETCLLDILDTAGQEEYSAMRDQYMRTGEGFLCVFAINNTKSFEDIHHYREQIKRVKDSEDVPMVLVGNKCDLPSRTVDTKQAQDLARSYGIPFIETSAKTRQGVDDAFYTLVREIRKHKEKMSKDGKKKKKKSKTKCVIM

| DC50 [1] | IC50 [2] | IC50 [3] | SMILES |
| --- | --- | --- | --- |
| 14 nM | 59 nM | 44 nM | CO[C@@H](C)COc1nc(N[C@@H]2CCNC2)c2cc(C3CC3)c(-c3c(C)c(F)cc4[nH]ncc34)c(OCc3ccc(-c4cn([C@H](C(=O)N5C[C@H](O)C[C@H]5C(=O)N[C@@H](CO)c5ccc(-c6scnc6C)cc5)C(C)C)nn4)cc3)c2n1 (atropisomer, axis not shown) [Example 51] |
| 27 nM | 16 nM | 15 nM | CO[C@@H](C)COc1nc(N(C)[C@H]2CCNC2)c2cc(C3CC3)c(-c3c(C)c(F)cc4[nH]ncc34)c(OCc3ccc(-c4cn([C@H](C(=O)N5C[C@H](O)C[C@H]5C(=O)N[C@@H](CO)c5ccc(-c6scnc6C)cc5)C(C)C)nn4)nc3)c2n1 (atropisomer, axis not shown) [Example 45] |
| 26 nM | 22 nM | 15 nM | CO[C@@H](CF)COc1nc(N(C)[C@H]2CCNC2)c2cc(C3CC3)c(-c3c(C)c(F)cc4[nH]ncc34)c(OCc3ccc(-c4cn([C@H](C(=O)N5C[C@H](O)C[C@H]5C(=O)N[C@@H](CO)c5ccc(-c6scnc6C)cc5)C(C)C)nn4)cc3)c2n1 (atropisomer, axis not shown) [Example 47] |
| 20 nM | 6 nM | 7 nM | CCn1nccc1-c1ccc([C@H](CO)NC(=O)[C@@H]2C[C@@H](O)CN2C(=O)[C@H](C(C)C)n2cc(-c3ccc(COc4c(-c5c(C)c(F)cc6[nH]ncc56)c(C5CC5)cc5c(N(C)[C@H]6CCNC6)nc(OC[C@H]6CCCO6)nc45)cc3)nn2)cc1 (atropisomer, axis not shown) [Example 29] |
| 91 nM | 6 nM | 4 nM | Cc1ncsc1-c1ccc([C@H](CO)NC(=O)[C@@H]2C[C@@H](O)CN2C(=O)[C@H](C(C)C)n2cc(-c3ccc(COc4c(-c5c(C)c(F)cc6[nH]ncc56)c(C5CC5)cc5c(N(C)[C@H]6CCNC6)nc(OC[C@@H](C)C(F)F)nc45)cc3)nn2)cc1 [Example 42] |
| 34 nM | 5 nM | 7 nM | CO[C@@H](C)COc1nc(N2CCNCC2)c2cc(C3CC3)c(-c3c(C)c(F)cc4[nH]ncc34)c(OCc3ccc(-c4cn([C@H](C(=O)N5C[C@H](O)C[C@H]5C(=O)N[C@@H](CO)c5ccc(-c6scnc6C)cc5)C(C)C)nn4)cc3)c2n1 (atropisomer, axis not shown) [Example 54] |
| 9 nM | 12 nM | 10 nM | CO[C@@H](C)COc1nc(O[C@H]2CCNC2)c2cc(C3CC3)c(-c3c(C)c(F)cc4[nH]ncc34)c(OCc3ccc(-c4cn([C@H](C(=O)N5C[C@H](O)C[C@H]5C(=O)N[C@@H](CO)c5ccc(-c6scnc6C)cc5)C(C)C)nn4)cc3)c2n1 (atropisomer, axis not shown) [Example 5] |
| 74 nM | 7 nM | 8 nM | Cc1ncsc1-c1ccc([C@H](CO)NC(=O)[C@@H]2C[C@@H](O)CN2C(=O)[C@H](C(C)C)n2cc(-c3ccc(COc4c(-c5c(C)c(F)cc6[nH]ncc56)c(C5CC5)cc5c(N(C)[C@H]6CCNC6)nc(OC[C@H]6CCOC6)nc45)cc3)nn2)cc1 (atropisomer, axis not shown) [Example 17] |
| 61 nM | 42 nM | 41 nM | CO[C@@H](C)COc1nc(N(C)[C@H]2CCNC2)c2cc(C3CC3)c(-c3c(C)c(F)cc4[nH]ncc34)c(OCc3ccc(-c4cn([C@H](C(=O)N5C[C@H](O)C[C@H]5C(=O)N[C@@H](CO)c5ccc(F)cc5)C(C)C)nn4)cc3)c2n1 (atropisomer, axis not shown) [Example 12] |
|  |  | 95 nM | Cc1ncsc1-c1ccc([C@H](CO)NC(=O)[C@@H]2C[C@@H](O)CN2C(=O)[C@H](C(C)C)n2cc(-c3ccc(COc4c(-c5c(C)c(F)cc6[nH]ncc56)c(C5CC5)nc5c(N6C[C@@H]7C[C@H]6CN7)nc(OC6CCOCC6)nc45)cc3)nn2)cc1 [Example 57, (4R)-1-[(2S)-2-(4-{4-[({6-cyclopropyl-4-[(1S,4S)-2,5-diazabicyclo[2.2.1]heptan-2-yl]-7-(6-fluoro-5-methyl-1H-indazol-4-yl)-2-[(oxan-4-yl)oxy]pyrido[3,2-d]pyrimidin-8-yl}oxy)methyl]phenyl}-1H-1,2,3-triazol-1-yl)-3-methylbutanoyl]-4-hydroxy-N-{(1R)-2-hydroxy-1-[4-(4-methyl-1,3-thiazol-5-yl)phenyl]ethyl}-L-prolinamide] |
